Key:
[1] = tested on: brain noradrenaline turnover; details: U.S. Pat. No. 4,237,135 and U.K. Pat. No. 2,017,698; cited from earlier work
[2] = U.S. Pat. No. 4,237,135 and U.K. Pat. No. 2,017,698; cited from earlier work
[3] = Conversion after oral administration; format: in vivo; details: orally administered
[4] = U.S. Pat. No. 4,237,135 and U.K. Pat. No. 2,017,698; cited from earlier work; remark: listed apart in the source
[5] = U.S. Pat. No. 4,237,135 and U.K. Pat. No. 2,017,698; cited from earlier work; remark: listed apart in the source
[6] = tested on: mouse-killing behavior of olfactory bulb-ablated rats; details: U.S. Pat. No. 4,237,135 and U.K. Pat. No. 2,017,698; cited from earlier work
pupil size = assay: Mydriatic action in rats; format: in vivo, male Wistar strain rats; details: for Percent mydriasis: one hour after administration, 3 mm dilation = 100 percent
Description: [IV] Mydriatic action in rats:
Male Wistar strain rats (weighing, 150-200 g) were used. Pupil size of the animals was twice measured microscopically just before and one hour after administration of drugs at a distance of 30 cm from the source of a constant light (30 W fluorescent light) according to the method of Pulewka [cf. Arch. exp. Path. U. Pharmakol., 168, 307 (1932)]. Based on the change between the first measured pupil size and the second measured pupil size, mydriasis percentage was calculated provided that mydriasis percentage is supposed to be 100 percent in case of 3 mm dilation of pupil size in diameter. Drugs to be tested were suspended in 0.5% tragacanth solution and administered. In the control group, a vehicle (0.5% tragacanth solution) was administered.

[7] = Toxicological study, LD50 mouse; details: in vivo, po, Mouse (ICR strain)
Description: (§1) Further, the toxicological study was conducted according to the conventional method on Compound B. The results are shown in Table 5.

[8] = tested on: ulceration induced by exposure to stress (restraint and water immersion); assay: Effect on the ulceration induced by exposure to stress (restraint and water immersion); format: in vivo, male Wistar strain rats; details: ulcer index = sum of length (mm) of lesions
Description: [I] Effect on the ulceration induced by exposure to stress (restraint and water immersion): Male Wistar strain rats (weighing, about 200 g) were placed in a stress cage which served to immobilize the animals therein and then immersed in a water bath of 23° C. to the height of xiphoid of the animals according to the method of Takagi et al. [cf. Takagi, K. and Okabe, S., Japan. J. Pharmacol., 18, 9 (1968)]. After 20 hours, the animals were sacrificed and the stomach was removed. The stomach was inflated with 13 ml of saline and placed in 5% formalin solution for 5 minutes. After washing with saline, the stomach was cut open along the greater curvature and the length (mm) of each lesion in the glandular portion was measured using a dissecting microscope (×12). The sum of the length (mm) of each lesions in a stomach was indicated as an ulcer index. In case of reference experiment using butylscopolamine bromide, a photograph of the mucosal surface of stomach was taken after the stomach was treated in the same manner as described above. The photograph was magnified by nine times, and the sum of the area (mm^2) of each lesions in a stomach was indicated as an ulcer index. The ulcer index in drug treated groups was compared with that in control group, and thereby, inhibitory percentage was calculated and then ED50 value, i.e., the dose required for 50% inhibition of the ulcer index, was determined by the usual graphic method. Drugs to be tested were suspended in 0.5% tragacanth solution and administered orally 30 minutes before the immersion. In the control group, a vehicle (0.5% tragacanth solution) was administered.

[9] = Toxicological study, LD50 rat; details: in vivo, po, Rat (SD strain)
Description: as §1

[10] = tested on: ulceration induced by pylorus-ligation; assay: Effect on the ulceration induced by pylorus-ligation in rats; format: in vivo, male Wistar strain rats
Description: [II] Effect on the ulceration induced by pylorus-ligation in rats: Male Wistar strain rats (weighing about 190 g) were fasted for 48 hours before experiment. The pylorus of each rat was ligated under ether anaesthesia according to the method of Shay et al. [cf. Shay, H., et al., Gastroenterology, 5, 43-61 (1945)]. Each of the animals was then allowed to stand abstained from food and water in a cage. After 18 hours, the animals were sacrificed under ether anaesthesia, and the stomachs were removed and cut open along the greater curvature. […] 4: marked ulcers more than two 5: perforated ulcer The ulcer index in drug treated groups was compared to that in the control group, and thereby, the inhibitory percentage was calculated and then ED50, i.e. the dose required for 50% inhibition of ulcer index, was determined by the usual graphic method. Drugs to be tested were suspended in 0.5% tragacanth solution and administered 30 minutes before the ligation. In the control group, a vehicle (0.5% tragacanth solution) was administered.

gastric secretion = assay: Effect on gastric secretion in rats (pylorus ligation, total acid content); format: in vivo, male Wistar strain rats
Description: [III] Effect on gastric secretion in rats: Male Wistar strain rats (weighing, about 200 g) were fasted for 24 hours before experiment. The pylorus was ligated under ether anaesthesia. Four hours after the ligation, the stomach was removed under ether anaesthesia. The gastric content was collected and centrifuged, and the secretory volume, pH and acid content of the supernatant were measured. The acid content was measured by titrating to pH 7.0 with 0.02N NaOH using pH meter (Hitachi Horiba, M-5). The total acid content of the drug treated groups was compared with that of the control group, and thereby, the reduction percentage of acid content was calculated and then ED50, i.e. the dose required for 50% reduction of acid content, was determined by the usual graphic method. Drugs to be tested were suspended in 0.5% tragacanth solution and administered orally 30 minutes before the ligation. In the control group, a vehicle (0.5% tragacanth solution) was administered.

CCN1CCN(c2cc(-c3ccccc3)c3ccccc3n2)CC1 [2-(4-ethyl-1-piperazinyl)-4-phenylquinoline]
inhibition of brain noradrenaline turnover [1]: inhibition of brain noradrenaline turnover
anti-tremorine activity [2]: has also anti-tremorine activity
conversion on oral administration [3]: partially converted into 2-(1-piperazinyl)-4-phenylquinoline
anti-tetrabenazine activity [4]: anti-tetrabenazine activity
anti-reserpine activity [5]: showed anti-reserpine activity
suppression of mouse-killing behavior of olfactory bulb-ablated rats [6]: suppression of mouse-killing behavior of olfactory bulb-ablated rats

CCN1CCN(c2cc(-c3ccccc3)c3ccccc3n2)CC1.O=C(O)/C=C\C(=O)O.O=C(O)/C=C\C(=O)O [Compound B, 2-(4-ethyl-1-piperazinyl)-4-phenylquinoline dimaleate]
Percent mydriasis (pupil size; 5 mg/kg p.o.): 0%
Percent mydriasis (pupil size; 10 mg/kg p.o.): 2.7%
Percent mydriasis (pupil size; 20 mg/kg p.o.): 4.7%
Percent mydriasis (pupil size; 50 mg/kg p.o.): 2.0%
Percent mydriasis (pupil size; 100 mg/kg p.o.): 2.7%
mydriatic action (in words) (pupil size; rats, up to 100 mg/kg): did entirely not show any mydriatic action even in a dose of 100 mg/kg
LD50 [7]: ~1200 mg/kg
Ulcer index Inhibitory % ([8]; 1 mg/kg p.o.): 44.5%
Ulcer index Inhibitory % ([8]; 2 mg/kg p.o.): 66.6%
Ulcer index Inhibitory % ([8]; 5 mg/kg p.o.): 90.1%
ED50 ([8]; Rattus norvegicus, po, 30 minutes before immersion, rats, read-out: ED50 (dose required for 50% inhibition of the ulcer index)): 1.2 mg/kg
LD50 [9]: ~3600 mg/kg
Ulcer index Inhibitory % ([10]; 5 mg/kg p.o.): 0%
Ulcer index Inhibitory % ([10]; 10 mg/kg p.o.): 28.6%
Ulcer index Inhibitory % ([10]; 20 mg/kg p.o.): 57.1%
Ulcer index Inhibitory % ([10]; 50 mg/kg p.o.): 78.6%
ED50 ([10]; Rattus norvegicus, po, 30 minutes before ligation, rats, 18 hours, ulcer index 0 to 5, read-out: ED50 (dose required for 50% inhibition of ulcer index)): 19 mg/kg
Total acid content Reduction % (gastric secretion; 0.5 mg/kg p.o.): 27.8%
Total acid content Reduction % (gastric secretion; 1 mg/kg p.o.): 24.0%
Total acid content Reduction % (gastric secretion; 2 mg/kg p.o.): 47.8%
Total acid content Reduction % (gastric secretion; 5 mg/kg p.o.): 60.2%
ED50 (gastric secretion; Rattus norvegicus, po, 30 minutes before ligation, rats, 4 hours after ligation, read-out: ED50 (dose required for 50% reduction of acid content)): 2.8 mg/kg

From patent US4677107A, “Anti-peptic ulcer agent” (Dainippon Pharmaceutical Co., Ltd., priority 1983, dated 1987)
